PMC4820820, “CETSA screening identifies known and novel thymidylate synthase inhibitors and slow intracellular activation of 5-fluorouracil” (Nature Communications, 2016)
Where two headings read alike, the source gives them in different places.

Key:
TS = TS (Homo sapiens, UniProt P04818); test: Thermal shift in vitro assay on recombinant protein; assay type: binding; design: His6 tag with TEV site (vector-encoded by pNIC28-Bsa4); made in house; host or cells: Rosetta BL21-DE3 Escherichia coli
Method: The assay was performed on the iCycler iQ Real Time PCR Detection System (Bio-Rad), using the 96-well thin-wall PCR plate (Bio-Rad). The experiment was conducted in a buffer containing 20 mM HEPES at pH 7.5 and 150 mM NaCl. A total volume of 25 μl solution containing 0.2 mg ml^−1 protein, compounds and × 5 Sypro Orange dye (Invitrogen) diluted from 5,000 × stock was dispensed into the 96-well plate. The same amount of DMSO was added in the control wells. The plates were sealed with Microseal B adhesive sealer (Bio-Rad) and heated in iCycler from 25 to 80 °C (56 heating cycles in 28 min). Fluorescent filter used for Sypro Orange measurements was λexcitation=492 nm and λemission=610 nm. The calculation of the midpoint of the curves (Tm) was performed using the software package XLfit from IDBS within microsoft excel.
Decitabine at a concentration of 1 mM was incubated with 1 mg ml^−1 of recombinant DCK and 2.5 mM ATP in a buffer of 50 mM Tris at pH 7.5, 150 mM NaCl and 0.5 mM MgCl2 at room temperature for 60 min to generate the corresponding monophosphates. To probe for nucleotide deamination the samples were further treated with 1 mg ml^−1 of recombinant DCTD in the presence of 1 mM ATP and 10 μM ZnCl2 for 20 min at room temperature. After incubation, the samples were heated at 95 °C for 10 min and centrifuged for 10 min at the highest speed at 4 °C using a benchtop centrifuge. The supernatant was tested without dilution in thermal shift in vitro assays and the TS enzyme inhibition assay. The supernatants from samples without nucleoside were used as the treatment controls.

[1] = biological target: T1, human thymidylate synthase (TS) (Homo sapiens, UniProt P04818); test: CETSA primary screen / single-concentration retest, AlphaScreen, live K562 cells; assay type: cell-based
T1 construct: screening in live, non-engineered cells expressing thymidylate synthase; endogenous in cells; host or cells: K562 (human myelogenous leukemia) cells
Method: Compounds were placed in columns 1–22. […] At the day of the experiment the plates were allowed to thaw for 30 min followed by a brief centrifugation step (1,000 × g for 1 min) prior to removal of the seal. The compounds were then diluted with 20 μl supplemented cell culture medium using a Multidrop Combi reagent dispenser (Thermo Scientific). Finally 5 μl of the diluted compounds were transferred to a 384 well hardshell PCR plate (HSR480, BIORAD) using a Bravo liquid handling platform equipped with a 384-well head (Agilent). […] The final concentration of DMSO in the assay was 0.5% in all samples.
The screen procedure started with the addition of 5 μl of a suspension of K562 cells at a density of 10 million cells per ml to all wells of a 384 well hardshell PCR plate (HSR480, BIORAD) using an electronic multichannel pipette (Biohit). […] For the time-course experiments the incubation times were altered to include also 10 min, 30 min and 6 h. […] After the incubation step the plates were transiently heated at 50 °C for 3 min followed by a controlled cooling to 20 °C for 1 min using a real-time PCR machine (LightCycler480 system, Roche). Plate handling was then as described above for the thermal aggregation experiments. The data were analyzed using microsoft excel and GraphPad Prism 6.
A calculation of the average and standard error of means for each set of controls also allowed an illustration of how these responses varied over the 32 screening plates. The Z′ factor[38] is commonly used as a measure of how well the assay separates between the controls and this was calculated as described based on the calculated averages and standard deviations of the controls on a per plate basis. For the Tagg shift and the […] experiments the data were analyzed in GraphPad Prism using the Boltzmann sigmoid equation and the saturation binding curve (rectangular hyperbola; binding isotherm) function, respectively. As already discussed[14] these methods make use of equilibrium models for data analysis although the methodology depends on the irreversible aggregation of denatured material. For this reason we refer to the observed responses as apparent and isothermal dose-response fingerprints and are careful with any quantitative interpretations, being well aware of their dependency on experimental conditions. Experiments are on-going to address the quantitative interpretation of CETSA data.

TS in K562 cell lysates = biological target: T2, TS in K562 cell lysates (Homo sapiens, UniProt P04818); test: Western blot CETSA on K562 cell lysates; assay type: binding
T2 construct: screening in live, non-engineered cells expressing thymidylate synthase; endogenous in cells; host or cells: K562 (human myelogenous leukemia) cells
Method: For the cell lysate thermal shift experiments, cultured K562 cells were harvested and washed with Hank's Balanced Salt Solution. The cells were diluted in lysis buffer supplemented with complete protease inhibitor cocktail. The cell suspensions were freeze-thawed three times using liquid nitrogen and passed through a 27″ gauge needle five times. The soluble fraction (lysate) was separated from the cell debris by centrifugation at 20,000 × g for 20 min at 4 °C. For the thermal aggregation curve experiments cell lysates were diluted with lysis buffer supplemented with 200 μM dUMP and divided into two aliquots, with one aliquot being treated with ligand and the other aliquot with vehicle (control). […] The supernatants containing the remaining soluble proteins were transferred to new 0.2 ml microtubes and analyzed by sodium dodecyl sulfate polyacrylamide gel electrophoresis (SDS-PAGE) followed by western blot analysis.
NuPage Novex Bis-Tris 4–12% polyacrylamide gels with NuPAGE MES SDS running buffer (Life Technologies) were used for separation of proteins in the samples. […] Chemiluminescence intensities were detected and quantified using a ChemiDoc XRS+ imaging system (Bio-Rad) with Image Lab software (Bio-Rad).

TS, sequence (P04818 whole entry): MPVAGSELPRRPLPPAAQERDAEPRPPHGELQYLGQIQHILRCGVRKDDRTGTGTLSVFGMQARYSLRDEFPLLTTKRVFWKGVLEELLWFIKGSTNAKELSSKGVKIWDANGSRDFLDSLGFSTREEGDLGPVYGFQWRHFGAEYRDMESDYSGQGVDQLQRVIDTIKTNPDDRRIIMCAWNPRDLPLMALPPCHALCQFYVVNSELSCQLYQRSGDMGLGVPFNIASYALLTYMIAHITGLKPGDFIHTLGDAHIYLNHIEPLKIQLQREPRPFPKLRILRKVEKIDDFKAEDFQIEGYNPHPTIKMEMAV
T1 sequence (P04818 2-313 limits assumed): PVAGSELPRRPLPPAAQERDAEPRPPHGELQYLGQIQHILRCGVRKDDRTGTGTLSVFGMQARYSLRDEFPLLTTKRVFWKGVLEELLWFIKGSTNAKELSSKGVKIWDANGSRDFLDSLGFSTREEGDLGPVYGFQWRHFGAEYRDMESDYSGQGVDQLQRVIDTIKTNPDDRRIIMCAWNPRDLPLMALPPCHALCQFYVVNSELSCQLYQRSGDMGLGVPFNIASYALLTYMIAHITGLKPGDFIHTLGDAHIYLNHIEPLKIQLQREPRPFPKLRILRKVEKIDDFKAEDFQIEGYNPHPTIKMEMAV
T2 sequence (P04818 2-313 limits assumed): as above

| ΔTm at 25 µM (TS; 25 μM compound, 500 μM dUMP, read-out: thermal shift of isolated recombinant human TS) | ΔTm at 100 µM (TS; 100 μM compound, 500 μM dUMP, read-out: thermal shift of isolated recombinant human TS) | % stabilization in screen at 50 µM ([1]; K562, 2 h; read-out: % stabilization in screen) | Tagg shift of TS in K562 cell lysates (TS in K562 cell lysates; 200 μM compound, lysate with 200 μM dUMP) | Compound | stabilization of recombinant TS (TS; 1 mM decitabine after treatment with recombinant DCK) | stabilization of recombinant TS in thermal shift assay (TS; nucleoside without enzyme treatment) | ΔTm at 1000 µM (TS; read-out: thermal shift of recombinant TS) | % stabilization in screen at 50 µM ([1]; K562, 2 h, read-out: % stabilization in screen) | stabilization of TS in treated K562 lysates (TS in K562 cell lysates; 200 µM decitabine) |
| --- | --- | --- | --- | --- | --- | --- | --- | --- | --- |
| 2.6 °C | 5.2 °C | 20% | 3.7 °C | Cc1cc(O)nc2sc(C(=O)c3ccccc3)c(N)c12 [CBK115334, 3-amino-2-benzoyl-4-methylthieno(2,3-b)pyridin-6-ol] | – | – | – | – | – |
| – | – | – | – | Nc1ncn([C@H]2C[C@H](O)[C@@H](CO)O2)c(=O)n1 [decitabine, 5-Aza-deoxycytidine] | only a marginal stabilization | did not stabilize | ~10 °C | 91% | not stabilized |
